{
  "source": "patent US20220378923A1",
  "about": "“BET DEGRADER” (KYOWA KIRIN CO., LTD., priority 2019, published 2022)",
  "system": "DCAF16 KO SU-DHL-4 cells",
  "test": "Inhibitory effect on cell viability using SU-DHL-4 DCAF16 knock out (KO) cell line (Test Example 6)",
  "format": "cell-based, human",
  "conditions": "for Activity Attenuation Ratio: (SU-DHL-4 DCAF16 KO IC50)/(SU-DHL-4 WT IC50); for IC50: DCAF16 KO SU-DHL-4 cells, 72 hours, Cell Counting Kit-8, 50% inhibition of cell viability",
  "method_in_brief": "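SU-DHL-4 DLBCL cells carrying lentiviral Cas9 plus DCAF16-targeting sgRNA (three KO strains; non-targeting control strain), seeded 2000 cells/well, pre-cultured 18–25 h, then given 9-step compound dilutions (0.1% DMSO final) for 72 h at 37° C. Viability read by CCK-8 colorimetric assay.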",
  "data": [
    {"smiles": "CCC(=O)N1c2ccccc2[C@H](Nc2ccc(-c3nnc(CNC(=O)[C@H]4CC[C@H](N[C@@H]5C[C@H](C)N(C(=O)CC)c6ccccc65)CC4)o3)cc2)C[C@@H]1C", "note": "[Compound 7q, (1R,4R)-4-(((2S,4R)-2-Methyl-1-propionyl-1,2,3,4-tetrahydroquinolin-4-yl)amino)-N-((5-(4-(((2S,4R)-2-methyl-1-propionyl-1,2,3,4-tetrahydroquinolin-4-yl)amino)phenyl)-1,3,4-oxadiazol-2-yl)methyl)cyclohexane-1-carboxamide]", "values": [
      {"measurement": "Activity Attenuation Ratio", "value": 850},
      {"measurement": "IC50", "value": 79.7, "unit": "nM"}
    ]},
    {"smiles": "CCC(=O)N1c2ccccc2[C@H](Nc2ccc(Cn3cc(C(=O)Nc4ccc(N[C@@H]5C[C@H](C)N(C(=O)CC)c6ccccc65)cc4)nn3)cc2)C[C@@H]1C", "note": "[Compound 5j, 1-(4-(((2S,4R)-2-Methyl-1-propionyl-1,2,3,4-tetrahydroquinolin-4-yl)amino)benzyl)-N-(4-(((2S,4R)-2-methyl-1-propionyl-1,2,3,4-tetrahydroquinolin-4-yl)amino)phenyl)-1H-1,2,3-triazolee-4-carboxamide]", "values": [
      {"measurement": "Activity Attenuation Ratio", "value": 941},
      {"measurement": "IC50", "value": 37.3, "unit": "nM"}
    ]},
    {"smiles": "CCC(=O)N1c2ccccc2[C@H](Nc2ccc(NC(=O)N3CCN(C(=O)c4ccc(N[C@@H]5C[C@H](C)N(C(=O)CC)c6ccccc65)cc4)CC3)cc2)C[C@@H]1C", "note": "(relative stereo) [Compound 6m, 4-(4-(((2S,4R)-2-Methyl-1-propionyl-1,2,3,4-tetrahydroquinolin-4-yl)amino)benzoyl)-N-(4-(((2S*,4R*)-2-methyl-1-propionyl-1,2,3,4-tetrahydroquinolin-4-yl)amino)phenyl)piperazine-1-carboxamide]", "values": [
      {"measurement": "Activity Attenuation Ratio", "value": 1164},
      {"measurement": "IC50", "setting": "Homo sapiens", "value": 90.3, "unit": "nM"}
    ]},
    {"smiles": "CCC(=O)N1c2ccccc2[C@H](Nc2ccc(NC(=O)CCCC(=O)Nc3ccc(Cn4cc(-c5c(C)noc5C)ccc4=O)cc3)cc2)C[C@@H]1C", "note": "[Compound 17a, N^1-(4-((5-(3,5-Dimethylisoxazol-4-yl)-2-oxopyridin-1(2H)-yl)methyl)phenyl)-N5-(4-(((2S,4R)-2-methyl-1-propionyl-1,2,3,4-tetrahydroquinolin-4-yl)amino)phenyl)glutaramide]", "values": [
      {"measurement": "Activity Attenuation Ratio", "value": 1895},
      {"measurement": "IC50", "setting": "Homo sapiens", "value": 182, "unit": "nM"}
    ]},
    {"smiles": "CCC(=O)N1c2ccccc2[C@H](Nc2ccc(NC(=O)COCC(=O)Nc3ccc(C4=NCc5nnc(C)n5-c5sc(C)c(C)c54)cc3)cc2)C[C@@H]1C", "note": "[Compound 14d, N-(4-(((2S,4R)-2-Methyl-1-propionyl-1,2,3,4-tetrahydroquinolin-4-yl)amino)phenyl)-2-(2-oxo-2-((4-(2,3,9-trimethyl-6H-thieno[3,2-f][1,2,4]triazolo[4,3-a][1,4]diazepin-4-yl)phenyl)amino)ethoxy)acetamide]", "values": [
      {"measurement": "Activity Attenuation Ratio", "value": 96},
      {"measurement": "IC50", "setting": "Homo sapiens", "value": 9.61, "unit": "nM"}
    ]},
    {"smiles": "CCC(=O)N1c2ccccc2[C@H](NCCCCC(=O)NCc2cn(-c3ccc(N[C@@H]4C[C@H](C)N(C(=O)CC)c5ccccc54)cc3)nn2)C[C@@H]1C", "note": "(relative stereo) [Compound 12f, 5-(((2S*,4R*)-2-Methyl-1-propionyl-1,2,3,4-tetrahydroquinolin-4-yl)amino)-N-((1-(4-(((2S,4R)-2-methyl-1-propionyl-1,2,3,4-tetrahydroquinolin-4-yl)amino)phenyl)-1H-1,2,3-triazol-4-yl)methyl)pentane amide]", "values": [
      {"measurement": "Activity Attenuation Ratio", "value": ">40284"},
      {"measurement": "IC50", "value": "> 10000", "unit": "nM"}
    ]}
  ]
}
